# Assay results as given in patent US9668497B2, “Flavor-enhancing compounds” (INTERNATIONAL FLAVORS & FRAGRANCES INC., priority 2015, dated 2017).
# What was measured:
# [1] = Cooling enhancement in menthol (35 ppm), trained sensory panel; assay type: in vivo
# Procedure: The flavor compositions of menthol (35 ppm) combined with 7,8-dihydroxy-2-phenyl-4H-chromen-4-one (Formula I) at different concentrations were evaluated by a trained sensory panel. Sensory results are reported in the following. […]
# [2] = Cooling enhancement in Cooler 2 (10 ppm); assay type: in vivo
# Procedure: (§1) The cooling enhancement of Formula I and Na-Formula I in cooling compounds including WS-5 (30 ppm), WS-23 (35 ppm), menthyl lactate (35 ppm), WS-3 (30 ppm) and Cooler 2 (10 ppm) was also evaluated.
# [3] = Cooling enhancement in menthyl lactate (35 ppm); assay type: in vivo
# Procedure: as §1
# [4] = Cooling enhancement in various cooling compounds (summary of Example VII); assay type: in vivo; details: WS-5, WS-23, menthyl lactate, WS-3, Cooler 2; table footnote
# Procedure: as §1
# [5] = Cooling enhancement in WS-3 (30 ppm); assay type: in vivo
# Procedure: as §1
# [6] = Cooling enhancement in WS-5 (30 ppm); assay type: in vivo
# Procedure: as §1
# [7] = Sensory description of Formula I alone in water; assay type: in vivo; details: 20 ppm in water
# [8] = Cooling enhancement in WS-23 (35 ppm); assay type: in vivo
# Procedure: as §1
# [9] = Solubility in aqueous solutions; assay type: physicochemical
smiles,measurement,setting,value
"CC1CCC(C(C)C)C(O)C1 (centres unmarked) [Menthol, menthol, reference compound]",Flavor Profile,"[1]; menthol 35 ppm alone, 0 ppm enhancer",Cooling sensation
"O=c1cc(-c2ccccc2)oc2c(O)c(O)ccc12 [Formula I, 7,8-dihydroxy-2-phenyl-4H-chromen-4-one]",Evaluation on the Cooling Enhancement,[2]; test substance 1 ppm,Marginal
same,Evaluation on the Cooling Enhancement,[2]; test substance 2 ppm,Marginal
same,Evaluation on the Cooling Enhancement,[2]; test substance 5 ppm,Marginal
same,Evaluation on the Cooling Enhancement,[2]; test substance 10 ppm,~10% enhancement
same,Evaluation on the Cooling Enhancement,[2]; test substance 20 ppm,~10% enhancement
same,Evaluation on the Cooling Enhancement,[2]; test substance 30 ppm,"~20% enhancement,"
same,Evaluation on the Cooling Enhancement,[2]; test substance 40 ppm,"Enhancement,"
same,Evaluation on the Cooling Enhancement,[2]; test substance 50 ppm,"Enhancement,"
same,Evaluation on the Cooling Enhancement,[2]; test substance 100 ppm,"Enhancement,"
same,Evaluation on the Cooling Enhancement,[3]; test substance 1 ppm,Marginal
same,Evaluation on the Cooling Enhancement,[3]; test substance 2 ppm,Marginal
same,Evaluation on the Cooling Enhancement,[3]; test substance 5 ppm,Marginal
same,Evaluation on the Cooling Enhancement,[3]; test substance 10 ppm,~10% enhancement
same,Evaluation on the Cooling Enhancement,[3]; test substance 20 ppm,~20% enhancement
same,Evaluation on the Cooling Enhancement,[3]; test substance 30 ppm,"~20% enhancement,"
same,Evaluation on the Cooling Enhancement,[3]; test substance 40 ppm,"Enhancement,"
same,Evaluation on the Cooling Enhancement,[3]; test substance 50 ppm,"Enhancement,"
same,Evaluation on the Cooling Enhancement,[3]; test substance 100 ppm,"Enhancement,"
same,"Cooling enhancement, overall statement",[4],Formula I and Na-Formula I enhanced the cooling sensation of various cooling compounds.
same,Evaluation on the Cooling Enhancement,[5]; test substance 1 ppm,Marginal
same,Evaluation on the Cooling Enhancement,[5]; test substance 2 ppm,Marginal
same,Evaluation on the Cooling Enhancement,[5]; test substance 5 ppm,Marginal
same,Evaluation on the Cooling Enhancement,[5]; test substance 10 ppm,~15% enhancement
same,Evaluation on the Cooling Enhancement,[5]; test substance 20 ppm,~20% enhancement
same,Evaluation on the Cooling Enhancement,[5]; test substance 30 ppm,"~20% enhancement,"
same,Evaluation on the Cooling Enhancement,[5]; test substance 40 ppm,"Enhancement,"
same,Evaluation on the Cooling Enhancement,[5]; test substance 50 ppm,"Enhancement,"
same,Evaluation on the Cooling Enhancement,[5]; test substance 100 ppm,"Enhancement,"
same,Evaluation on the Cooling Enhancement,[6]; test substance 1 ppm,Marginal
same,Evaluation on the Cooling Enhancement,[6]; test substance 2 ppm,Marginal
same,Evaluation on the Cooling Enhancement,[6]; test substance 5 ppm,Marginal
same,Evaluation on the Cooling Enhancement,[6]; test substance 10 ppm,~15% enhancement
same,Evaluation on the Cooling Enhancement,[6]; test substance 20 ppm,~20% enhancement
same,Evaluation on the Cooling Enhancement,[6]; test substance 30 ppm,"~20% enhancement,"
same,Evaluation on the Cooling Enhancement,[6]; test substance 40 ppm,"Enhancement,"
same,Evaluation on the Cooling Enhancement,[6]; test substance 50 ppm,"Enhancement,"
same,Evaluation on the Cooling Enhancement,[6]; test substance 100 ppm,"Enhancement,"
same,Cooling property,[7],no cooling property
same,Evaluation on the Cooling Enhancement,[8]; test substance 1 ppm,Marginal
same,Evaluation on the Cooling Enhancement,[8]; test substance 2 ppm,Marginal
same,Evaluation on the Cooling Enhancement,[8]; test substance 5 ppm,Marginal
same,Evaluation on the Cooling Enhancement,[8]; test substance 10 ppm,~10% enhancement
same,Evaluation on the Cooling Enhancement,[8]; test substance 20 ppm,~20% enhancement
same,Evaluation on the Cooling Enhancement,[8]; test substance 30 ppm,"~20% enhancement,"
same,Evaluation on the Cooling Enhancement,[8]; test substance 40 ppm,"Enhancement,"
same,Evaluation on the Cooling Enhancement,[8]; test substance 50 ppm,"Enhancement,"
same,Evaluation on the Cooling Enhancement,[8]; test substance 100 ppm,"Enhancement,"
same,Solubility in aqueous solutions,[9],sparingly soluble
same,"Cooling enhancement, overall statement","[1]; menthol 35 ppm, table footnote",Formula I enhanced the cooling sensation of menthol.
same,Flavor Profile: cooling enhancement,"[1]; menthol 35 ppm, test substance 1 ppm",Marginal cooling enhancement
same,Flavor Profile: cooling enhancement,"[1]; menthol 35 ppm, test substance 2 ppm",Marginal cooling enhancement
same,Flavor Profile: cooling enhancement,"[1]; menthol 35 ppm, test substance 5 ppm",Marginal cooling enhancement
same,Flavor Profile: cooling enhancement,"[1]; menthol 35 ppm, test substance 10 ppm",~10% cooling enhancement
same,Flavor Profile: cooling enhancement,"[1]; menthol 35 ppm, test substance 20 ppm","~20% cooling enhancement,"
same,Flavor Profile: cooling enhancement,"[1]; menthol 35 ppm, test substance 30 ppm","~20% cooling enhancement, slight"
same,Flavor Profile: cooling enhancement,"[1]; menthol 35 ppm, test substance 40 ppm","Cooling enhancement, reduced"
same,Flavor Profile: cooling enhancement,"[1]; menthol 35 ppm, test substance 50 ppm","Cooling enhancement, harsh"
same,Flavor Profile: cooling enhancement,"[1]; menthol 35 ppm, test substance 100 ppm","Cooling enhancement, harsh"
